The compounds below were run against T1, human RXFP1 (Homo sapiens, UniProt Q9HBX9) (assay: RXFP1 cAMP assay (hRXFP1 HEK293 cAMP assay, HTRF)). Settings: HEK293 cells stably expressing human RXFP1, 30 min at room temperature, read-out: cAMP hRXFP1 HEK293 Assay EC50.
T1 construct: expressed in transfected cells
T1 sequence (Q9HBX9 1-757): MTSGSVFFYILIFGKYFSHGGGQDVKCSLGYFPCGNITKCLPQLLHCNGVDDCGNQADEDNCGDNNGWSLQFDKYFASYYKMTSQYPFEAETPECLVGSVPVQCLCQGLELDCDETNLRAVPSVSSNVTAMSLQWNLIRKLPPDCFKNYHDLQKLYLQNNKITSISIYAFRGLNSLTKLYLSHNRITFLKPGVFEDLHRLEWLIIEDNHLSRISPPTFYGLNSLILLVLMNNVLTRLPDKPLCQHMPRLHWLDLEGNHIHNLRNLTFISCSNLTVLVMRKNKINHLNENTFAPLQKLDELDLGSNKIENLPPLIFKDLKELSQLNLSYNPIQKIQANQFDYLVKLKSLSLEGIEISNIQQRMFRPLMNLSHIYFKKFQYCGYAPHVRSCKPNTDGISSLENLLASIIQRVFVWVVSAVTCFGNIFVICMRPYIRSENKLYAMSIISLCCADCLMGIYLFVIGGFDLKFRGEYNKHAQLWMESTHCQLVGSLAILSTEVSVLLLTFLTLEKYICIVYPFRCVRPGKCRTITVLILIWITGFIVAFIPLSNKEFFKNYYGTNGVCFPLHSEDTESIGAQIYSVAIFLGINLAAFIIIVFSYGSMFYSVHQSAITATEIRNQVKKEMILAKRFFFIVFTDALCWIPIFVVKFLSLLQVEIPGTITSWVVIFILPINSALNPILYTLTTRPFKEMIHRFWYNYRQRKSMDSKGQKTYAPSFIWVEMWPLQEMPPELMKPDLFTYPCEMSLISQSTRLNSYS
Assay type: cell-based
How it was run: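 HEK293 cells stably expressing human RXFP1 (1500 cells/well) in HBSS/20 mM HEPES/0.05% BSA/0.5 mM IBMX. Compounds were tested at 0.010 nM–50 μM final (2% DMSO) for 30 min at room temperature. cAMP was measured by HTRF and values derived by 4-parameter logistic fit.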

SMILES	EC50
COc1cccc(/C=C2\C3CCC2[C@H](C(=O)Nc2ccc(F)c(C(F)(F)F)c2)[C@@H]3NC(=O)c2cc(F)c(F)cc2OC)c1 (some centres unmarked) [compound 19]	720 nM
CCC(C)(C)NC(=O)[C@@H]1[C@H](NC(=O)c2cc(C3=NOC4COCC34)ccc2OC)[C@@H]2CC[C@H]1/C2=C/C1CC1 (some centres unmarked) [compound 502]	11.9 nM
COc1c(F)cc(-c2cc([C@H](OC(=O)NC3CCC3)C(F)(F)F)ccc2F)cc1C(=O)N[C@H]1[C@@H](C(=O)N[C@H](C)C2(C)CC2)[C@H]2CC[C@@H]1/C2=C\C1CC(F)(F)C1 [compound 970]	2 nM
COc1c(F)cc(-c2cnc3n2CC(O)CC3)cc1C(=O)N[C@H]1[C@@H](C(=O)Nc2ccc(F)c(C(F)(F)F)c2)[C@H]2CC[C@@H]1/C2=C\C1CC1 (some centres unmarked) [compound 753]	3.3 nM
COc1ccc(-c2cc(C3=NOC(C(=O)O)C3)ccc2F)cc1C(=O)N[C@H]1[C@@H](C(=O)Nc2ccc(F)c(C(F)(F)F)c2)[C@H]2CC[C@@H]1/C2=C\C1CC1 (some centres unmarked) [compound 948]	8.6 nM
CC(C)=C1C2CCC1[C@H](C(=O)Nc1ccc(F)c(C(F)(F)F)c1)[C@@H]2NC(=O)c1ccccc1OC(C)C (some centres unmarked) [compound 115]	1100 nM
COc1ccc(C2=NOC3COCC23)cc1C(=O)N[C@H]1[C@@H](C(=O)NC2CCCCC2)[C@H]2CC[C@@H]1/C2=C\C1CC1 (some centres unmarked) [compound 552]	36.7 nM
COc1ccc(C2=NOC3COCC23)cc1C(=O)N[C@H]1[C@@H](C(=O)N[C@@H]2CCc3ccccc32)[C@H]2CC[C@@H]1/C2=C\C1CC1 (some centres unmarked) [compound 577]	70.7 nM
COc1ccc(-c2cc(C(=O)O)ccc2F)cc1C(=O)N[C@@H]1C2CCC(/C2=C/C2CC2)[C@@H]1C(=O)NC1CCc2ccccc2C1 (some centres unmarked) [compound 299]	227 nM
COc1ccc(-c2cc(C(C)(C)O)on2)cc1C(=O)N[C@@H]1C2CCC(/C2=C/C2CC2)[C@@H]1C(=O)Nc1ccc(F)c(C(F)(F)F)c1 (some centres unmarked) [compound 425]	19 nM
COc1ccc(C2=NOC3CC(CO)CC23)cc1C(=O)N[C@@H]1C2CCC(/C2=C/C2CC2)[C@@H]1C(=O)Nc1ccc(F)c(C(F)(F)F)c1 (single isomer, unassigned) [compound 431]	250 nM
COc1ccc(C2=NOC3COCC23)cc1C(=O)N[C@H]1[C@@H](C(=O)N[C@H](C)C(C)(C)C)[C@H]2CC[C@@H]1/C2=C\C1CC1 (some centres unmarked) [compound 485]	7.8 nM
COc1ccc(C2CCN(CC(C)(C)O)C2)cc1C(=O)N[C@@H]1C2CCC(C2=CC2CC2)[C@@H]1C(=O)Nc1ccc(F)c(C(F)(F)F)c1 (some centres unmarked) [compound 601]	108 nM
COc1ccc(C2=NOC(C(C)(C)O)C2)cc1C(=O)N[C@H]1[C@@H](C(=O)Nc2ccc(F)c(C(F)(F)F)c2)[C@H]2CC[C@@H]1/C2=C\C1CC1 (single isomer, unassigned) [compound 524]	21.9 nM
CCOC(=O)c1coc(-c2ccc(OC)c(C(=O)N[C@@H]3C4CCC(C4=C(C)C)[C@@H]3C(=O)Nc3ccc(F)c(C(F)(F)F)c3)c2)n1 (some centres unmarked) [Example 110]	800 nM
COc1ccc(C2=NOC3C[C@H](O)CC23)cc1C(=O)N[C@@H]1C2CCC(/C2=C/C2CC2)[C@@H]1C(=O)Nc1ccc(F)c(C(F)(F)F)c1 (some centres unmarked) [compound 407]	21 nM
COc1ccc(-c2cc(C(OC(=O)NC3CC4(CC4)C3)C(F)(F)F)ccc2F)cc1C(=O)N[C@@H]1C2CCC(/C2=C/C2CC2)[C@@H]1C(=O)Nc1ccc(F)c(C(F)(F)F)c1 (some centres unmarked) [compound 215]	2 nM
COc1c(C)cc(C2=NOC3CC(CO)CC23)cc1C(=O)N[C@H]1[C@@H](C(=O)Nc2ccc(F)c(C(F)(F)F)c2)[C@H]2CC[C@@H]1/C2=C\C1CC1 (some centres unmarked) [compound 797]	4.1 nM
COc1ccc(-c2cc([C@H](OC(=O)NC3CCC3)C(F)(F)F)ccc2F)cc1C(=O)N[C@H]1[C@@H](C(=O)N[C@H](C)C2(C)CC2)[C@H]2CC[C@@H]1/C2=C\CCC(F)(F)F [compound 966]	6.9 nM
COc1ccc([C@H]2CO[C@@H]3[C@H]2OC[C@@H]3O)cc1C(=O)N[C@H]1[C@@H](C(=O)Nc2ccc(F)c(C(F)(F)F)c2)[C@H]2CC[C@@H]1/C2=C\C1CC1 [compound 560]	45.3 nM
COc1c(F)cc(C2=NOC3CC(CO)CC23)cc1C(=O)N[C@H]1[C@@H](C(=O)Nc2ccc(F)c(C(F)(F)F)c2)[C@H]2CC[C@@H]1/C2=C\CC(O)C(F)(F)F (some centres unmarked) [compound 836]	4.1 nM

SMILES	EC50
COCC(=O)NC(C(=O)O)c1ccc(F)c(-c2ccc(OC)c(C(=O)N[C@@H]3C4CCC(/C4=C/C(F)(F)F)[C@@H]3C(=O)Nc3ccc(F)c(C(F)(F)F)c3)c2)c1 (some centres unmarked) [compound 243]	4 nM
COc1ccc(C2=NOC3CC(OC)CC23)cc1C(=O)N[C@@H]1C2CCC(/C2=C/C2CC2)[C@@H]1C(=O)Nc1ccc(F)c(C(F)(F)F)c1 (some centres unmarked) [compound 867]	3.7 nM
COc1ccc(C2=NOC3COCC23)cc1C(=O)N[C@H]1[C@@H](C(=O)NC(C)(C)C)[C@H]2CC[C@@H]1/C2=C\C1CC1 (some centres unmarked) [compound 545]	31.5 nM
COc1ccc(C2=NOC3CS(=O)(=O)CC23)cc1C(=O)N[C@@H]1C2CCC(/C2=C/C2CC2)[C@@H]1C(=O)Nc1ccc(F)c(C(F)(F)F)c1 (single isomer, unassigned) [compound 443]	5 nM
CCCCNC(=O)[C@@H]1[C@H](NC(=O)c2cc(C3=NOC4COCC34)ccc2OC)[C@@H]2CC[C@H]1/C2=C/C1CC1 (some centres unmarked) [compound 614]	138 nM
COc1ccc(-c2cc(C(OC(=O)Nc3ccccc3)C(F)(F)F)ccc2F)cc1C(=O)N[C@@H]1C2CCC(/C2=C/C2CC2)[C@@H]1C(=O)Nc1ccc(F)c(C(F)(F)F)c1 (single isomer, unassigned) [compound 224]	2 nM
COc1ccc(C2=NOC3CC(CO)CC23)cc1C(=O)N[C@H]1[C@@H](C(=O)Nc2ccc(F)c(C(F)(F)F)c2)[C@H]2CC[C@@H]1/C2=C\c1ccncn1 (some centres unmarked) [compound 809]	4.6 nM
COc1cc(C2CC2)c(C2=NOC3COCC23)cc1C(=O)N[C@H]1[C@@H](C(=O)Nc2ccc(F)c(C(F)(F)F)c2)[C@H]2CC[C@@H]1/C2=C\C1CC1 (single isomer, unassigned) [compound 695]	836 nM
COc1cc(C)c(C2=NOC3CC(CO)CC23)cc1C(=O)N[C@H]1[C@@H](C(=O)Nc2ccc(F)c(C(F)(F)F)c2)[C@H]2CC[C@@H]1/C2=C\C1CC1 (some centres unmarked) [compound 740]	3.4 nM
COC(=O)C1CC2ON=C(c3ccc(OC)c(C(=O)N[C@H]4[C@@H](C(=O)Nc5ccc(F)c(C(F)(F)F)c5)[C@H]5CC[C@@H]4/C5=C\C4CC4)c3)C2C1 (some centres unmarked) [compound 512]	15.7 nM
COc1ccc(C2=NOC(C3(O)CCCCC3)C2)cc1C(=O)N[C@H]1[C@@H](C(=O)Nc2ccc(F)c(C(F)(F)F)c2)[C@H]2CC[C@@H]1/C2=C\C1CC1 (single isomer, unassigned) [compound 615]	139 nM
COc1ccc(-c2cc(C(O)C(=O)O)ccc2F)cc1C(=O)N[C@@H]1C2CCC(/C2=C/C2CC2)[C@@H]1C(=O)Nc1ccc(F)c(C(F)(F)F)c1 (some centres unmarked) [compound 181]	6 nM
COc1ccc(C2=NOC(C(=O)O)(C(C)(C)C)C2)cc1C(=O)N[C@H]1[C@@H](C(=O)Nc2ccc(F)c(C(F)(F)F)c2)[C@H]2CC[C@@H]1/C2=C\C(F)(F)F (stereo partly drawn) [Example 397, 5-(tert-butyl)-3-(3-(((1R,2R,3S,4R,Z)-3-((4-fluoro-3-(trifluoromethyl)phenyl)carbamoyl)-7-(2,2,2-trifluoroethylidene)bicyclo[2.2.1]heptan-2-yl)carbamoyl)-4-methoxyphenyl)-4,5-dihydroisoxazole-5-carboxylic acid]	912 nM
COc1ccc(-c2cc(C(OC(=O)NC3CCC3)C(=O)O)ccc2F)cc1C(=O)N[C@H]1[C@@H](C(=O)Nc2ccc(F)c(C(F)(F)F)c2)[C@H]2CC[C@@H]1/C2=C\C1CC(F)(F)C1 (some centres unmarked) [compound 939]	0.6 nM
COc1ccc(C2=NOC3CC(CO)CC23)cc1C(=O)N[C@H]1[C@@H](C(=O)Nc2ccc(F)c(C(F)(F)F)c2)[C@H]2CC[C@@H]1/C2=C\C(F)(F)F (some centres unmarked) [compound 533]	23.4 nM
CCC(CC)CNC(=O)[C@@H]1[C@H](NC(=O)c2cc(C3=NOC4COCC34)ccc2OC)[C@@H]2CC[C@H]1/C2=C/C1CC1 (some centres unmarked) [compound 553]	37.4 nM
CCO/N=C1\C2CCC1[C@H](C(=O)Nc1ccc(F)c(C(F)(F)F)c1)[C@@H]2NC(=O)c1cc(-c2cc(C(=O)O)ccc2F)ccc1OC (some centres unmarked) [Example 130]	440 nM
COc1ccc(C2=NOC3COCC23)cc1C(=O)N[C@H]1[C@@H](C(=O)Nc2ccc(F)c(OC(F)(F)F)c2)[C@H]2CC[C@@H]1/C2=C\C1CC1 (some centres unmarked) [compound 761]	1.9 nM
COc1cc(F)c(F)cc1C(=O)N[C@@H]1C2CCC(/C2=C/c2ccc(F)cc2)[C@@H]1C(=O)Nc1ccc(F)c(C(F)(F)F)c1 (some centres unmarked) [compound 41]	27 nM
COc1c(F)cc(C2=NOC3CC(CO)CC23)cc1C(=O)N[C@H]1[C@@H](C(=O)N[C@H](C)C2(C)CC(F)(F)C2)[C@H]2CC[C@@H]1/C2=C\C1CC1 (some centres unmarked) [compound 870]	2.2 nM

From patent US20250221966A1, “RXFP1 AGONISTS” (BRISTOL-MYERS SQUIBB COMPANY, priority 2021, published 2025)
